Measurements taken from patent US9283176B2, “Benzimidazole anthelmintic compositions” (Zoetis Services LLC, priority 2008, dated 2016).

Tests used:
[1] = Stability studies: total moxidectin and triclabendazole levels after storage; type: physicochemical; details: in Composition F, 25° C. or 40° C.; for Stability of the active during storage (in words): entire 6 month storage period
Method: Stability studies were conducted to ensure that a composition according to the present invention was stable. Composition F of Example 3 was prepared according to the process described in Example 1 and stored at either ambient (25° C.) or 40° C. for a total period of 6 months. At the conclusion of each storage period shown in Table V below, samples were tested for total moxidectin and triclabendazole levels.

[2] = Triclabendazole solubility in various lactone solvents; type: physicochemical
Method: Still further embodiments of anthelmintic compositions representative of the present invention are prepared according to the process described in Example 1 above, except that lactone solvents other than γ-hexalactone are employed. In particular, the compositions are prepared with one of the following lactone solvents: butyrolactone, δ-hexalactone, γ-dodecalactone, δ-nonalactone, δ-decalactone, γ-decalactone, and δ-dodecalactone.

| SMILES | Stability of the active during storage (in words) [1] | Physical state of the active during storage (in words) ([1]; up to 6 months) | Solvency in lactone solvents (in words) ([2]; lactone solvents of Table VIII and similar lactones and combinations) | Triclabendazole Solubility (% w/w) ([2]; solvent γ-butyrolactone) | Triclabendazole Solubility (% w/w) ([2]; solvent γ-decalactone) | Triclabendazole Solubility (% w/w) ([2]; solvent γ-dodecalactone) | Triclabendazole Solubility (% w/w) ([2]; solvent γ-hexalactone) | Triclabendazole Solubility (% w/w) ([2]; solvent γ-nonalactone) | Triclabendazole Solubility (% w/w) ([2]; solvent δ-decalactone) | Triclabendazole Solubility (% w/w) ([2]; solvent δ-dodecalactone) |
| --- | --- | --- | --- | --- | --- | --- | --- | --- | --- | --- |
| CO/N=C1\C[C@]2(C[C@@H]3C[C@@H](C/C=C(\C)C[C@@H](C)/C=C/C=C4\CO[C@@H]5[C@H](O)C(C)=C[C@@H](C(=O)O3)[C@]45O)O2)O[C@H](/C(C)=C/C(C)C)[C@H]1C [Moxidectin] | remained stable and active |  |  |  |  |  |  |  |  |  |
| CSc1nc2cc(Cl)c(Oc3cccc(Cl)c3Cl)cc2[nH]1 [Triclabendazole, 5-chloro-6(2,3-dichlorophenoxy)-2-methylthio-1H-benzimidazole] | remained stable and active | remained in solution | surprisingly good solvency | >18.0 | 15.2 | 11.8 | 16.8 | 16.7 | 28.1 | 21.5 |
